In paper PMC12257535, “Distinct Interactions of Cannabinol and Its Cytochrome P450-Generated Metabolites with Receptors and Sensory Neurons” (Journal of Medicinal Chemistry, 2025):

Legend:
[1] = target: CB2 receptor (Homo sapiens, UniProt P34972); experiment: G protein nanoBRET assay, antagonist mode, CB2 receptor; conditions: 50 μM after pretreatment with 1 μM CP-55940
[2] = system: human liver microsomes; experiment: CBN metabolism by human liver microsomes, metabolite formation rate; type: in vitro ADME; conditions: HLM, across different CBN concentrations
Experimental: We carried out concentration-dependent metabolism of CBN in the presence of 2 CYPs: 2C9 and 2D6. For the experiment, we used an enzyme concentration of 0.5 μM, reconstituted in the lipid system of POPC: POPS (8:2 v/v), and CPR at 0.6 μM dissolved in 0.1 M potassium phosphate buffer for CYP2C9. The substrate CBN was used in a range of 5–80 μM. The reaction mixture was incubated at 37 °C for 10 min, and then NADPH was added (1 mM), allowing the reaction to proceed for an additional 30 min. We quenched the reactions using a mixture of Hexane: Ethyl Acetate (8:2 v/v) and used the same composition to extract the CBN metabolites. We did a total extraction for three cycles. Following the extractions, the extractions were dried under a continuous stream of nitrogen, and the residual products were finally dissolved in 90% ethanol. We used CYP2D6 in a nanodisc for the metabolism of CBN. […] We carried out the same protocol for the metabolism of CBN using 1 μg of human liver microsome, CPR (0.6 μM) and NADPH (1 mM).
Samples were analyzed with the Sciex QTrap 6500+ system (Framingham, MA) with Waters Acquity I-class plus UPLC. Software Analyst 1.7.1 was used for data acquisition.
The LC separation was performed on a Waters Acquity UPLC BEH column (2.1 × 100 mm, […]) with mobile phase A (0.1% formic acid in water) and mobile phase B (0.1% formic acid in acetonitrile). The flow rate was 0.5 mL/min unless noted otherwise. […]
(§1) Mass spectra were acquired under positive electrospray ionization (ESI) with the ion spray voltage of 4500 V. The source temperature was 500 °C. […] Multiple reaction monitoring (MRM) was used for quantitation, as described in transitions CBN (m/z 311.2 → m/z 205.1), CBN-1′–OH (m/z 327.2 → m/z 253.1), CBN-11-OH (m/z 327.2 → m/z 291.1), CBN-p-quinone (m/z 325.2 → m/z 283.1) and CBC-d9 as internal standard (m/z 324.2→ m/z 202.1).
(§2) All data were analyzed using the software Skyline (daily version 22.2.1.278). […]

[3] = target: T1, CYP2D6 (Homo sapiens, UniProt P10635); experiment: CYP2D6 (nanodisc)-mediated CBN metabolism, kinetics of metabolite formation; type: in vitro ADME; conditions: CBN 5–80 μM
T1 construct: polyhistidine (inferred from Ni-NTA purification and histidine elution); made in house; host or cells: E. coli (inferred from the pCWori vector and lysozyme/spheroplast preparation)
Experimental: We carried out concentration-dependent metabolism of CBN in the presence of 2 CYPs: 2C9 and 2D6. For the experiment, we used an enzyme concentration of 0.5 μM, reconstituted in the lipid system of POPC: POPS (8:2 v/v), and CPR at 0.6 μM dissolved in 0.1 M potassium phosphate buffer for CYP2C9. The substrate CBN was used in a range of 5–80 μM. The reaction mixture was incubated at 37 °C for 10 min, and then NADPH was added (1 mM), allowing the reaction to proceed for an additional 30 min. We quenched the reactions using a mixture of Hexane: Ethyl Acetate (8:2 v/v) and used the same composition to extract the CBN metabolites. We did a total extraction for three cycles. […]
Samples were analyzed with the Sciex QTrap 6500+ system (Framingham, MA) with Waters Acquity I-class plus UPLC. […]
as §1, §2

[4] = In vivo metabolism of CBN in female mice, plasma levels by targeted LC/MS/MS; parameters: species or system C57BL/6 mice; conditions: for CBN-11-OH formation relative to CBN-1′-OH / CBN-11-OH formation relative to CBN-quinone: 0.5 h, plasma
Experimental: Initially dissolved in ethanol, CBN was combined with a volume of Tween 80, constituting 6% of the total solution volume for injection. Ethanol was eliminated via vacuum evaporation, and saline was added to prepare a 4 mg/mL solution. CBN (20 mg/kg) or vehicle was administered to C57BL/6 mice intravenously (IV) through the retro-orbital sinus or intraperitoneally (IP) at the lower right quadrant of the abdomen. Animals were euthanized at 30- or 120 min postinjection. Blood samples, collected via cardiac puncture into heparin tubes, underwent cold centrifugation at 4500 rpm for 15 min to isolate plasma. Plasma and whole liver samples were flash-frozen at −80 °C for subsequent analysis. Our decision to use female mice for this experiment was based on the availability of age-matched mice in the colony at the time of the experiment.
Mice were anaesthetized with a 3% inhalant dose of isoflurane until their respiratory rate decreased to 50% of baseline (i.e., 40–60 breaths/min) and the righting reflex was abolished. Mice were subsequently removed from the induction chamber and laid on their side. Using the index finger and thumb of the nondominant hand, the skin above and below the eye was retracted until a slight protrusion from the socket was noted. A 29G1/2 needle was inserted, bevel down, into the medial canthus at an approximate 45-degree angle until slight resistance was noted. Volume was slowly infused at a rate of 15uL/second. The needle was subsequently removed from the eye socket, and ophthalmic ointment was added.
Animals were gently restrained by scruff, and the injection site at the lower right quadrant of the abdomen was identified. The needle was inserted at a 60-degree angle to the body, and the plunger was lightly withdrawn to ensure the needle was not in contact with viscera or organs before dispensing volume.
200 μL plasma samples were collected and used for extraction using 1 mL of Hexane: Ethyl acetate (8:2 v/v) following a similar protocol described above.
Samples were analyzed using the Sciex QTrap 6500+ system (Framingham, MA) with Waters Acquity I- class plus UPLC. Software Analyst 1.7.1 was used for data acquisition.
The LC separation was performed on a Waters Acquity UPLC BEH column (2.1 × 100 mm, 1.7 μm) with mobile phase A (0.1% formic acid in water) and mobile phase B (0.1% formic acid in acetonitrile). The flow rate was 0.5 mL/min unless noted otherwise. The linear gradient was as follows: 0–0.5 min, 70%A; 2 min, 20%A; 4–4.2 min, 0%A; 4.21–5.2 min, 0%A (0.8 mL/min); 5.3–6.9 min, 70%A. The autosampler was set at 10 °C, and the column was kept at 50 °C. The injection volume was 5 μL.
Mass spectra were acquired under positive electrospray ionization (ESI) with the ion spray voltage of 4500 V. The source temperature was 500 °C. The curtain gas, ion source gas 1, and ion source gas 2 were 32, 50, and 70 psi, respectively. Multiple reaction monitoring (MRM) was used for quantitation with the MRM transition of CBN (m/z 311.2 → m/z 269.1), CBN-1′–OH (m/z 327.2 → m/z 253.1), CBN-11-OH (m/z 327.2 → m/z 128.1), CBN-p-quinone (m/z 325.2 → m/z 283.1) and EPEA-d4 as internal standard (m/z 350.3 → m/z 66.1).

[5] = target: CYP3A4 (Homo sapiens, UniProt P08684, S18F); experiment: NADPH oxidation assay with CYP3A4 nanodisc and CPR; conditions: triplicate
[6] = system: Arginase 1; experiment: Arginase 1 ELISA in LPS-stimulated BV2 microglial cells; type: cell-based
Experimental: (§3) The BV2 microglial cells were subjected to the treatment of LPS both in the absence and presence of CBN and its selected metabolites. The seeding density for this assay was 1 × 10^5 cells/well. The cells were initially treated with the molecules for 4 h before being stimulated with LPS (25 ng/mL). The NO assay was performed 24 h after the treatment with LPS. The NO assay was performed according to the manufacturer’s protocol, and NO levels were quantified using nitrate standard curves. For the assay, 50 μL of cell media was used in a 96-well plate, and the absorbance was recorded at 540 nm. All measurements were performed in n = 5.
(§4) ELISA assays of IL-6, IL-10 (Item No. 88–7105), and Arginase 1 were performed using the same supernatant with which we had completed the NO and LDH assays. The culture media was collected, and the IL-6 (Thermo Scientific) and Arginase 1 (abcam) assays were performed using the specific monoclonal antibodies as per the manufacturer’s instructions.

[7] = system: IL-6; experiment: IL-6 ELISA in LPS-stimulated BV2 microglial cells; type: cell-based; conditions: LPS-stimulated BV2, 5 μM
Experimental: as §3, §4

[8] = system: IL-10; experiment: IL-10 ELISA in LPS-stimulated BV2 microglial cells; type: cell-based; conditions: LPS-stimulated BV2, 1–5 μM
Experimental: as §3, §4

[9] = target: CB1 receptor (Homo sapiens, UniProt P21554); experiment: G protein nanoBRET assay, antagonist mode, CB1 receptor; conditions: 50 μM after pretreatment with 1 μM CP-55940
[10] = system: DRG neurons; experiment: Calcium responses of cultured DRG sensory neurons; type: cell-based; conditions: cultured mouse DRG neurons, 50 μM × 15 s
Experimental: 9 CBN and 11-OH CBN activate DRG neurons with similar response magnitudes but differ in their percentage of neurons activated and time to peak response. Calcium response traces of representative cultured mouse DRG neurons following application of CBN (A) and 11-OH CBN (B) 50 μM × 15 s (arrow). […] Mean value ± SEM (CBN: n = 59; 11-OH CBN: n = 29, two-tailed t test, Prism GraphPad).

[11] = system: NO; experiment: NO levels in LPS-stimulated BV2 microglial cells; type: cell-based
Experimental: as §3

[12] = substrate: CCCCCC1=CC(=O)C2=C(OC(C)(C)c3ccc(C)cc32)C1=O; experiment: not read; conditions: other: CYP2C9, CBN 5–80 μM
Experimental: (§5) For the experiment, we used an enzyme concentration of 0.5 μM, reconstituted in the lipid system of POPC: POPS (8:2 v/v), and CPR at 0.6 μM dissolved in 0.1 M potassium phosphate buffer for CYP2C9. […] The reaction mixture was incubated at 37 °C for 10 min, and then NADPH was added (1 mM), allowing the reaction to proceed for an additional 30 min. […] We did a total extraction for three cycles. Following the extractions, the extractions were dried under a continuous stream of nitrogen, and the residual products were finally dissolved in 90% ethanol.
(§6) The LC separation was performed on a Waters Acquity UPLC BEH column (2.1 × 100 mm, 1.7 μM) with mobile phase A (0.1% formic acid in water) and mobile phase B (0.1% formic acid in acetonitrile). The flow rate was 0.5 mL/min unless noted otherwise. The linear gradient was as follows: 0–0.5 min, 70%A; 2 min, 20%A; 4–4.2 min, 0%A; 4.21–5.2 min, 0%A (0.8 mL/min); 5.3–6.9 min, 70%A. The autosampler was set at 10 °C, and the column was kept at 50 °C. The injection volume was 5 μL.
(§7) All data were analyzed using the software Skyline (daily version 22.2.1.278). It includes raw data import, peak integration, and a linear regression fit with 1/×2 weighting for the calibration curves.

[13] = substrate: CCCC[C@H](O)c1cc(O)c2c(c1)OC(C)(C)c1ccc(C)cc1-2; experiment: not read; conditions: other: CYP2C9, CBN 5–80 μM
Experimental: as §5, §6, §7

CB2 receptor, sequence (P34972 whole entry): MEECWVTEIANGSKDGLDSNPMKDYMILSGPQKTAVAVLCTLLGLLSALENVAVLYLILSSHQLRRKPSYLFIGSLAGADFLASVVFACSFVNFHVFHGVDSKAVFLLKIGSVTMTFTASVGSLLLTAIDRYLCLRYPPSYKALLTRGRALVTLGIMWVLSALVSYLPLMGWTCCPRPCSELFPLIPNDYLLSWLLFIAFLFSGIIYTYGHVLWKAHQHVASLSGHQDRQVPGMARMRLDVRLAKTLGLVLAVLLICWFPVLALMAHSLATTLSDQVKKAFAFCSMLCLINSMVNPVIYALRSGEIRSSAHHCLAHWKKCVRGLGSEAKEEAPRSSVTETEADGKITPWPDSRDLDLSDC
CYP3A4, sequence (P08684 with tags, fused parts or gaps S18F limits assumed): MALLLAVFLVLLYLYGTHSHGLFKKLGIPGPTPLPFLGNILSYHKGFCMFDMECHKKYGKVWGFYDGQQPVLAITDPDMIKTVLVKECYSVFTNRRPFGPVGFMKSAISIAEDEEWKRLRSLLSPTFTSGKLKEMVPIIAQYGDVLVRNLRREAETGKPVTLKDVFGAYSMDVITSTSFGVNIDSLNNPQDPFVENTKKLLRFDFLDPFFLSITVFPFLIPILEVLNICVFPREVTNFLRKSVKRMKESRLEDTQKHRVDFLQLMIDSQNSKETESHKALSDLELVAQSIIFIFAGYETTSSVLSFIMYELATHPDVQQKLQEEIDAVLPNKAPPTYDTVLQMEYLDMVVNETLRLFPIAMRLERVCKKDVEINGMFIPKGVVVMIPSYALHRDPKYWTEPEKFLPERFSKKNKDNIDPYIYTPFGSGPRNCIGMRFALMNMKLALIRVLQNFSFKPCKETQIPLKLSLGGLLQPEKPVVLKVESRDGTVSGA
CB1 receptor, sequence (P21554 whole entry): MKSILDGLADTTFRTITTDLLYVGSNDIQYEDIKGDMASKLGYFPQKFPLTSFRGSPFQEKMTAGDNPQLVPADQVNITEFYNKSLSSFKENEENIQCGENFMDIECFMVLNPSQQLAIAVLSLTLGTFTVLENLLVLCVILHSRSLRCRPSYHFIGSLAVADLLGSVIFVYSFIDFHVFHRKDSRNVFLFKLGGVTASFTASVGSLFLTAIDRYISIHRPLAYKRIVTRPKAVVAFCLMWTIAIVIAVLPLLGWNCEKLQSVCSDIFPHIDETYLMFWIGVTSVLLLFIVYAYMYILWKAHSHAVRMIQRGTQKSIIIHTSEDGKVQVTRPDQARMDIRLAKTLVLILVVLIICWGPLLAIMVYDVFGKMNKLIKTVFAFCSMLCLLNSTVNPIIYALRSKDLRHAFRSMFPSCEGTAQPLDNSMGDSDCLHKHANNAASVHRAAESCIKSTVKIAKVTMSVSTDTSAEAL
T1 sequence (P10635 with tags, fused parts or gaps limits assumed): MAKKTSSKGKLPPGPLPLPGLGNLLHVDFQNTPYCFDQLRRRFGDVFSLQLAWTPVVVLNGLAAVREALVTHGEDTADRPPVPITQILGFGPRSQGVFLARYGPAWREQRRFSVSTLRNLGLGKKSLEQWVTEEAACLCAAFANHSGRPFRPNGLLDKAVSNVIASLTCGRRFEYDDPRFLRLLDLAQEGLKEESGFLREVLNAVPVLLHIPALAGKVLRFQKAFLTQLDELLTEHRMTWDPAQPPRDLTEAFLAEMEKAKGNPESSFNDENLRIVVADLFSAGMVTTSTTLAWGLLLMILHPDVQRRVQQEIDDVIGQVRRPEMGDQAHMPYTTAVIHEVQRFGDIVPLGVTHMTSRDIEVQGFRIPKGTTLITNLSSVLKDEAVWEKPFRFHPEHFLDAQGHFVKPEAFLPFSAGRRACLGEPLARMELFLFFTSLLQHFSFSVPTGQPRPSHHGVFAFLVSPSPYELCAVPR

CCCCCC1=CC(=O)C2=C(OC(C)(C)c3ccc(C)cc32)C1=O [CBN-quinone, 6,6,9-Trimethyl-3-pentyl-1H-benzo[c]chromene-1,4(6H)-dione]
inhibition of CB2 receptor [1]: partial inhibition | rate of metabolite formation from CBN [2]: further down by approximately three times the value of CBN-1′–OH | Vmax of metabolite formation from CBN [3]: 5.6 pmol/min/nmol | reduction of plasma level between 0.5 and 2 h ([4]; IV administration of CBN): 9 fold

CC(C)C[C@H]1C(=O)N2CCC[C@H]2[C@]2(O)O[C@](NC(=O)[C@@H]3C=C4c5cccc6[nH]c(Br)c(c56)C[C@H]4N(C)C3)(C(C)C)C(=O)N12 [Bromocriptine, reference compound]
rate of NADPH oxidation in the presence of the compound [5]: 60.788±19.569 nmol/min/nmol

CCCCCc1cc(O)c2c(c1)OC(C)(C)c1ccc(CO)cc1-2 [CBN-11-OH, cannabinol-11-hydroxy]
inhibition of CB2 receptor [1]: complete inhibition | Arginase1 levels [6]: mixed results | rate of metabolite formation from CBN [2]: ≤ 3.4 × 10^4 pmol/min/nmol | IL-6 levels [7]: reduction in IL-6 levels | IL-10 levels [8]: concentration-dependent increase in IL-10 levels | inhibition of CB1 activation [9]: complete ablation of the BRET signal | reduction of plasma level between 0.5 and 2 h ([4]; IP administration of CBN): 2 fold | reduction of plasma level between 0.5 and 2 h ([4]; IV administration of CBN): 3 fold | CBN-11-OH formation relative to CBN-1′-OH ([4]; IV): ~89 times | CBN-11-OH formation relative to CBN-quinone ([4]; IV): ~55 times | CBN-11-OH formation relative to CBN-1′-OH ([4]; i.p.): ~82 fold | CBN-11-OH formation relative to CBN-quinone ([4]; i.p.): ~90 fold | Ca2+ response (%) [10]: 31.6 ± 2.8% | DRG neuron activation (%) [10]: 5.4 ± 1.1% | Response Time [10]: 22.8 ± 2.2 s | [Ca2+]i responses, peak values [10]: 31.6 ± 2.8% | percentage of DRG neurons activated [10]: 5.4 ± 1.1% | time to peak response [10]: 22.8 ± 2.2 s | production of NO ([11]; LPS-stimulated BV2, 5 μM): slightly lower production of NO | change in NO levels compared to cells with only LPS treatment ([11]; LPS-stimulated BV2, 1, 2.5 and 5 μM): no detectable significant (ns) change

B1: CYP2C9 (Homo sapiens) (protein)
chain: MDSLVVLVLCLSCLLLLSLWRQSSGRGKLPPGPTPLPVIGNILQIGIKDISKSLTNLSKVYGPVFTLYFGLKPIVVLHGYEAVKEALIDLGEEFSGRGIFPLAERANRGFGIVFSNGKKWKEIRRFSLMTLRNFGMGKRSIEDRVQEEARCLVEELRKTKASPCDPTFILGCAPCNVICSIIFHKRFDYKDQQFLNLMEKLNENIKILSSPWIQICNNFSPIIDYFPGTHNKLLKNVAFMKSYILEKVKEHQESMDMNNPQDFIDCFLMKMEKEKHNQPSEFTIESLENTAVDLFGAGTETTSTTLRYALLLLLKHPEVTAKVQEEIERVIGRNRSPCMQDRSHMPYTDAVVHEVQRYIDLLPTSLPHAVTCDIKFRNYLIPKGTTILISLTSVLHDNKEFPNPEMFDPHHFLDEGGNFKKSKYFMPFSAGKRICVGEALAGMELFLFLTSILQNFNLKSLVDPKNLDTTPVVNGFASVPPFYQLCFIPV
Km [12]: 2.5 µM | kcat [12]: 4.4 pmol/min/nmol | Km [13]: 2.3 µM | kcat [13]: 12.1 pmol/min/nmol
